The text below walks through data of ChEMBL document CHEMBL1152216, “Pyrazino[1,2-b]isoquinolines: synthesis and study of their cytostatic and cytotoxic properties” (2008).

In assay [1] the test system is MDA-MB-231. Put plainly: Growth inhibition of human MDA-MB-231 cells after 48 hrs by MTT assay. The format is functional. To be noted: MDA-MB-231, 48 h. (Tetrazolium dyes change colour on reduction, which living cells bring about.)
In assay [2] the test system is HT-29. Kind of assay: Growth inhibition of human HT-29 cells after 48 hrs by MTT assay. The format is functional. To be noted: HT-29, 48 h.
Assay [3] deals with A549. Put plainly: Growth inhibition of human A549 cells after 48 hrs by MTT assay. Format: functional. To be noted: A549, 48 h.
The subject of assay [4] is A549. Put plainly: Cytotoxicity against human A549 cells after 48 hrs by MTT assay. Format: functional. The note with it: A549, 48 h.
In assay [5] the test system is HT-29. Kind of assay: Cytotoxicity against human HT-29 cells after 48 hrs by MTT assay. The format is functional. The note with it: HT-29, 48 h, read-out: LC50 (the source's name).
The subject of assay [6] is A549. Kind of assay: Induction of apoptosis in human A549 cells assessed as JNK activation at 50 uM after 24 hrs by Western blot. Format: functional, cell-based. In general terms: A western blot detects proteins with antibodies after separation by electrophoresis.
Assay [7] relates to A549. Put plainly: Cell cycle arrest in human A549 cells assessed as increase in accumulation at G1 phase at […] after 48 hrs by flow cytometry. The format is functional, cell-based. A general note: Flow cytometry measures light scatter and fluorescence of single cells or particles in a stream.
The subject of assay [8] is A549. Put plainly: Induction of DNA cleavage in human A549 cells assessed as CHK2 Ser19 phosphorylation at 50 uM after 24 hrs by Western blot. The format is functional, cell-based.
For assay [9], the system named is A549. Kind of assay: Induction of apoptosis in human A549 cells assessed as AKT signaling pathway activation at 50 uM after 24 hrs by Western blot. The format is functional, cell-based.
Assay [10] has as its system A549. Put plainly: Induction of DNA cleavage in human A549 cells assessed as p53 Ser15 phosphorylation at 50 uM after 24 hrs by Western blot. The format is functional, cell-based.
For assay [11], the system named is A549. Kind of assay: Induction of apoptosis in human A549 cells at 50 uM after 48 hrs by propidium iodide staining. Format: functional, cell-based.
For assay [12], the system named is A549. Kind of assay: Induction of DNA cleavage in human A549 cells assessed as H2AX phosphorylation at 50 uM after 24 hrs by Western blot. The format is functional, cell-based.
For assay [13], the system named is A549. Put plainly: Cell cycle arrest in human A549 cells assessed as decrease in accumulation at G2/M phase at […] after 48 hrs by flow cytometry. The format is functional, cell-based.
The test system of assay [14] is A549. Kind of assay: Induction of apoptosis in human A549 cells assessed as p38 activation at 50 uM after 24 hrs by Western blot. Format: functional, cell-based.
Assay [15] deals with A549. Kind of assay: Cell cycle arrest in human A549 cells assessed as decrease in accumulation at G1 phase at […] after 48 hrs by flow cytometry. Format: functional, cell-based.
The test system of assay [16] is MDA-MB-231. Kind of assay: Cytotoxicity against human MDA-MB-231 cells after 48 hrs by MTT assay. To be noted: MDA-MB-231, 48 h, read-out: LC50 (the source's name). Format: functional.

Calls of active or inactive are those of the source. No cut-off for these calls is given here.

In the case of `COc1c(C)c(OC)c(OC)c2c1C=C1CN(C)CC(=O)N1[C@H]2CN1Cc2ccccc2C1=O`, the figures for the GI50 in assay [1] and in assay [2] were 11.9 µM and 3.67 µM, respectively.

For the compound `COc1c(C)c(OC)c(OC)c2c1C[C@H]1CNCC(=O)N1[C@H]2COCc1ccccc1` (relative stereo), in assay [3], the GI50 – broadly, the concentration giving 50% growth inhibition – is 13.4 µM and the TGI (as a rule, the concentration giving total growth inhibition) is above 23.4 µM. The LC50 (usually the concentration that kills 50% of the test population) in assay [4] was above 23.4 µM.

Regarding `COc1c(C)c(OC)c(OC)c2c1C[C@H]1CN(C)CC(=O)N1[C@H]2COCc1ccccc1` (relative stereo), in assay [3], the GI50 worked out at 12.7 µM and the TGI was above 22.7 µM. Also, in [4], the LC50 was above 22.7 µM.

With `COc1c(C)c(OC)c(OC)c2c1C[C@@H]1CN(C(=O)OC(C)C)CC(=O)N1[C@H]2COCc1ccccc1` (relative stereo), the GI50 in assay [3] amounted to 8.19 µM; in assay [2], 10.5 µM. The compound further returned a TGI in assay [3] of 16.8 µM.

With `COc1c(C)c(OC)c(OC)c2c1C[C@H]1CN(C(=O)OC(C)C)CC(=O)N1[C@H]2COCc1ccccc1` (relative stereo), the figures for the GI50 in [1], in assay [3] and in [2] were 1.09 µM, 0.449 µM and 0.195 µM, respectively. Moreover, in assay [5], the CC50 was found to be 0.527 µM. For the same compound, the TGI in [3] amounted to 1.89 µM; in [2], 0.273 µM.

Consider `COc1c(C)c(OC)c(OC)c2c1C[C@H]1CN(C(=O)OC(C)C)CC(=O)N1[C@H]2COC(=O)/C=C/c1ccccc1` (relative stereo), for which the outcome in assay [6], in assay [8], in assay [9], in assay [10], in assay [12] and in [14] was inactive. In addition, the result in assay [7], in assay [11] and in [13] was Active. Besides, the GI50 in assay [3] is 9.05 µM; in assay [2], 9.23 µM.

With `COc1c(C)c(OC)c(OC)c2c1C[C@H]1[C@@H](O)N(C(=O)OC(C)C)CC(=O)N1[C@H]2COCc1ccccc1` (relative stereo), the GI50 came to 9.27 µM in assay [1], 5.68 µM in [3] and 8.32 µM in [2]. For the same compound, the TGI came to 15.3 µM in assay [1], 11.7 µM in assay [3] and 9.84 µM in assay [2]. In addition, the outcome in assay [6], in assay [8], in [9], in assay [10], in [12] and in [14] was inactive. The outcome in assay [11], in assay [15] and in assay [13] was Active. For the same compound, the LC50 in assay [4] is 17.4 µM.

For the compound `COc1c(C)c(OC)c(OC)c2c1C[C@H]1[C@H](C#N)N3C([C@@H]4O[C@H]5c6ccccc6[C@H](C#N)N5C[C@H]3c3c(OC)c(OC)c(C)c(OC)c34)[C@@H]2N1C` (relative stereo), the GI50 was 11.4 µM in assay [1], 11.4 µM in assay [3] and 7.35 µM in [2]. Also, the TGI in assay [1] is 12 µM; in [3], 12 µM; in assay [2], 8.22 µM. The result in assay [6], in [8], in [9], in [10], in assay [12] and in assay [14] was inactive. Further, the CC50 in assay [5] amounted to 10.2 µM; in assay [16], 12.8 µM. Further, the LC50 in [4] worked out at 12.7 µM.

For the compound `COc1c(C)c(OC)c2c(c1OC)[C@@H]1CN3C(=O)c4ccccc4[C@@H]3O[C@H]2C2=CN(C(=O)OC(C)C)CC(=O)N21` (relative stereo), the GI50 in assay [3] turned out to be 2.91 µM; in assay [2], 10.4 µM.

Take `COc1c(C)c(OC)c(OC)c2c1C[C@H]1[C@@H](O)N(C(=O)OC(C)(C)C)CC(=O)N1[C@H]2COCc1ccccc1` (relative stereo): the figures for the GI50 in [1], in [3] and in assay [2] were 12 µM, 4.79 µM and 14.4 µM, respectively. Moreover, the TGI is above 18.4 µM in [1], 17.5 µM in [3] and above 18.4 µM in assay [2]. The CC50 in [5] and in [16] was above 18.4 µM throughout. The compound further yielded an LC50 in [4] above 18.4 µM.

As for `COc1cc2c(cc1O)CCN[C@]21CS[C@@H]2c3c(OC(C)=O)c(C)c4c(c3[C@H](COC1=O)N1[C@@H]2[C@H]2c3c(cc(C)c(OC)c3O)C[C@@H]([C@@H]1O)N2C)OCO4` [TRABECTEDIN], the GI50 is 0.0551 µM in [1], 0.125 µM in [3] and 0.0517 µM in assay [2]. In addition, the TGI worked out at 0.0578 µM in assay [1], 0.131 µM in assay [3] and 0.063 µM in assay [2].
